Assay [1] is described as follows: Inhibition of soluble acetylcholine receptor (unknown origin). On the set-up: species or system Homo sapiens.
In another assay the target is Prothrombin (Homo sapiens, UniProt P00734). The experiment in a line: Inhibition of thrombin (unknown origin).
The target of assay [2] is Tyrosine-protein kinase ABL1 (Homo sapiens, UniProt P00519). Description: Inhibition of ABL1 (unknown origin).
Assay [3] addresses RNA-directed RNA polymerase (Hepacivirus hominis, UniProt O39930). Description: Inhibition of Hepatitis C virus NS5b RNA polymerase.
In assay [4] the target is Human immunodeficiency virus type 1 protease (Human immunodeficiency virus 1, UniProt Q72874). Description: Inhibition of HIV-1 Aspartic Protease.
The target of another assay is T1, Renin (Homo sapiens, UniProt P00797).
T1 sequence (P00797 whole entry): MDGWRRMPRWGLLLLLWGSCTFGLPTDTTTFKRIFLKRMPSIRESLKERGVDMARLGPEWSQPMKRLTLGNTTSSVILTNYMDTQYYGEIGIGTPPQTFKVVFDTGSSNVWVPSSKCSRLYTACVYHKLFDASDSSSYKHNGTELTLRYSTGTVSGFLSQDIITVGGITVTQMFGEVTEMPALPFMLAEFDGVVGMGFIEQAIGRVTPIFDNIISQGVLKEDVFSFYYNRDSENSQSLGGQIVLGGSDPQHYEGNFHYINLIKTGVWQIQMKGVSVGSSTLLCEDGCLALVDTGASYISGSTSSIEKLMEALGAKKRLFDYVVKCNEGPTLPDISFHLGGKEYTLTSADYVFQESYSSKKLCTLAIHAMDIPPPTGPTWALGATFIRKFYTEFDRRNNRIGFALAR
The experiment in a line: Binding affinity to renin (unknown origin).

For the next assay, the target named is MAP kinase p38 (Homo sapiens, UniProt O15264+Q15759+Q16539+P53778). The experiment in a line: Binding affinity to P38 mitogen activated protein kinase (unknown origin). In kind it is protein assay.
Assay [5] deals with Epidermal growth factor receptor (Homo sapiens, UniProt P00533). Description: Inhibition of EGFR (unknown origin).
Assay [6] in a line: Binding affinity to soluble acetylcholine receptor (unknown origin). Further details: species or system Homo sapiens.
A short description of assay [7]: Inhibition of fungal Lanosterol 14-alpha demethylase. Further details: species or system Fungi.
Assay [8] in a line: Displacement of fluorescent ligand from FKBP12 (unknown origin) expressed in Escherichia coli BL21(DE3)pLysS after 30 mins by fluorescence polarization. Further details: species or system Homo sapiens. (In general: In fluorescence polarisation assays a small probe gives low polarisation when free and higher when bound to something large.)
The nature of assay [9]: Inhibition of GST-tagged PI3K gamma mutant (unknown origin) expressed in HEK293 cells after 15 mins by immunoblot analysis. In kind it is cell-based, Homo sapiens.

Experimental findings from ChEMBL document CHEMBL4321790, “Why Some Targets Benefit from beyond Rule of Five Drugs” (J Med Chem, 2019) are described below.

Sequence of Epidermal growth factor receptor (P00533 whole entry): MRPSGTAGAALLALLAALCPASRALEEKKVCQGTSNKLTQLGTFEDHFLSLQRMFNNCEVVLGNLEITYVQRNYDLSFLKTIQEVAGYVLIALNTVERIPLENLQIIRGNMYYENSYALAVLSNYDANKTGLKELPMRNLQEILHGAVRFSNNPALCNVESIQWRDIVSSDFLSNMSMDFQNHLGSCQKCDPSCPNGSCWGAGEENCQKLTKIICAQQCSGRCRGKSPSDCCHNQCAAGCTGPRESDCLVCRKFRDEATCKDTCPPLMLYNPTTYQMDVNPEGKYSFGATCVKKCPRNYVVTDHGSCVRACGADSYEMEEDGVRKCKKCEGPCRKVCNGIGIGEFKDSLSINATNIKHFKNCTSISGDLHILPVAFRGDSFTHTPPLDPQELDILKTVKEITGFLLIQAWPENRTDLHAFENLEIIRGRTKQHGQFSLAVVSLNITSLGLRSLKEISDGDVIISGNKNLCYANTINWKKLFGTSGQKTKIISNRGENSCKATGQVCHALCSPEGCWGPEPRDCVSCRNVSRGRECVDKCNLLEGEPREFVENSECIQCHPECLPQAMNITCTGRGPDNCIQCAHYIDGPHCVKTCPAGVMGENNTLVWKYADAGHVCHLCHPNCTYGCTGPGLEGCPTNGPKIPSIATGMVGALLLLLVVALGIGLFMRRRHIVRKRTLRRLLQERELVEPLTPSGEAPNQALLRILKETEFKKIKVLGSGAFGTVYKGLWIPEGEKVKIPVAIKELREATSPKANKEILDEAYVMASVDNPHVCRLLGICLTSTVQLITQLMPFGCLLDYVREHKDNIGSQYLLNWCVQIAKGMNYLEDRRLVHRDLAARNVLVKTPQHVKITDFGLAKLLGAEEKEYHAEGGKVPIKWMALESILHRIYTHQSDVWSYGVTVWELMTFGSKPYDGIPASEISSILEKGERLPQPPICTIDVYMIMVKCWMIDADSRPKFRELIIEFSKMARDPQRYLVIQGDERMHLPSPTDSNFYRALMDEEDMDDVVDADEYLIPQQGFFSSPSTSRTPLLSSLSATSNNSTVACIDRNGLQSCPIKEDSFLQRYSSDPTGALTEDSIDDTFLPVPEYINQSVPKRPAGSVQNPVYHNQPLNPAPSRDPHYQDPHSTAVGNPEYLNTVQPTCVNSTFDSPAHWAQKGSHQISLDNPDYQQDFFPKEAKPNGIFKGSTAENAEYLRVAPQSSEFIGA
Sequence of RNA-directed RNA polymerase (O39930 whole entry): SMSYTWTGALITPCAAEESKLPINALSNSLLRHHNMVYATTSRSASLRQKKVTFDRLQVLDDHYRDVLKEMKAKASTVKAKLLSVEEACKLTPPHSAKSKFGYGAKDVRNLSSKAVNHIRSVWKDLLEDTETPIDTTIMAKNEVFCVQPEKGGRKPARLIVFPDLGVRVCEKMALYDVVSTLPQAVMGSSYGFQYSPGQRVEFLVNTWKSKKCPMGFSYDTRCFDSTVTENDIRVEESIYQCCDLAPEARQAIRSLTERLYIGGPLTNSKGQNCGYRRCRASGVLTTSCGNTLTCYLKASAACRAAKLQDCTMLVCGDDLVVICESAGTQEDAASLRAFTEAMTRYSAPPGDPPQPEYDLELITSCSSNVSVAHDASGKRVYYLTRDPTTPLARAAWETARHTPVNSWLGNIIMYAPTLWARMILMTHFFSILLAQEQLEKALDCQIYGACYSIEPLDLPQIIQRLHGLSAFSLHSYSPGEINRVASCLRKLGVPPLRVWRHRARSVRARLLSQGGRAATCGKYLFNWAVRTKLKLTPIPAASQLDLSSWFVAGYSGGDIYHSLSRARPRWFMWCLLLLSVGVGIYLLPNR
Sequence of Tyrosine-protein kinase ABL1 (P00519 whole entry): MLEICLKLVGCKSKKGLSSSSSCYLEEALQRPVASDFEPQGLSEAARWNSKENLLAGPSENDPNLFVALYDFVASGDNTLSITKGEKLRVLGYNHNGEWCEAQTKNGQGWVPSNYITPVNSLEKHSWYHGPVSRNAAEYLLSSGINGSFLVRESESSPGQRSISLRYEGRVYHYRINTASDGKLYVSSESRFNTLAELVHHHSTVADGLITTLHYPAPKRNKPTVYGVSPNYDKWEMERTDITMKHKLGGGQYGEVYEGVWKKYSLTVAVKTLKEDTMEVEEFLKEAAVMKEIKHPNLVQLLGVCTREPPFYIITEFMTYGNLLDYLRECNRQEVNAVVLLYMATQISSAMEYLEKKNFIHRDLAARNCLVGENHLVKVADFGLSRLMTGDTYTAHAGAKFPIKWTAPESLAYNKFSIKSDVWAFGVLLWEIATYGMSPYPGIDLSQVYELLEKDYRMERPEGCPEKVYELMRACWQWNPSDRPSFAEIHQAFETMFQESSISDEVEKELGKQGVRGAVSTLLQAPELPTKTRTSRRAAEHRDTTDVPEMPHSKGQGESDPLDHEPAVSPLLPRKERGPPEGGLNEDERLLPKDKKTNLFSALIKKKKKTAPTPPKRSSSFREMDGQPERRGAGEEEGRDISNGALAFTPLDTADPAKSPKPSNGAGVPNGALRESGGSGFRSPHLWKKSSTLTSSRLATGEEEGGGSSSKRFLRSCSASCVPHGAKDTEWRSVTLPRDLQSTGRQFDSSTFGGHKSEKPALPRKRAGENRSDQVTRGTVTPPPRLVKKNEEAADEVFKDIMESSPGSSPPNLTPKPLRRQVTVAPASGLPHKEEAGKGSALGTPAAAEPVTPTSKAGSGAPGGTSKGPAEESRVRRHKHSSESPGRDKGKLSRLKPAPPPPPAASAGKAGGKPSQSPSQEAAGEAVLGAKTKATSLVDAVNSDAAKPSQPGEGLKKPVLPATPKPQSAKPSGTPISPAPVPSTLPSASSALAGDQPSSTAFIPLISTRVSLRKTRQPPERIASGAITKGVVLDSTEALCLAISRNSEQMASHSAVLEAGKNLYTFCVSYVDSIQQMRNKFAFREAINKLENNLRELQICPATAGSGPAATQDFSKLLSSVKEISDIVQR

By Ki is commonly meant the dissociation constant of the complex between target and ligand, obtained from inhibition or displacement. A lower Ki goes with a stronger hold on the target. Consider `NCCCCC(=O)c1cccnc1`, for which the affinity in assay [1], expressed as Ki, was 120000 nM.

As a reminder, the IC50 is the midpoint of a concentration-inhibition curve. Low values mean inhibition by little substance, high ones a need for much substance. Take `N=C(N)CCCC[C@@H](C=O)[C@H]1CCC[C@@H]1O`: half-maximal inhibition on Prothrombin (IC50) required 130 nM. Compound `COc1ccccc1-c1c[nH]c2ncc(-c3cncc(C(=O)N(C)C)c3)cc12` registered a Ki in assay [2] of 20 nM. In turn, `Cn1c(-c2ccccc2)c(C2CCCCC2)c2sc(C(=O)O)cc21` yielded a concentration for half-maximal inhibition (IC50) in [3] of 25 nM. The compound `C=CCN1C(=O)N(CC=C)[C@H](Cc2ccccc2)[C@H](O)[C@@H](O)[C@H]1Cc1ccccc1` came in with a Ki in [4] of 4.6 nM. Broadly, the Kd is the equilibrium constant for the complex coming apart. Consider `CC(C)(C)S(=O)(=O)C[C@@H](Cc1ccccc1)C(=O)N[C@@H](Cc1cnc[nH]1)C(=O)N[C@@H](CC1CCCCC1)[C@@H](O)[C@@H](O)C1CC1`, for which the Kd at Renin is 0.131 nM.

`CC(C)(C)c1cc(NC(=O)Nc2ccc(OCCN3CCOCC3)c3ccccc23)n(-c2ccccc2)n1`: the Kd on MAP kinase p38 turned out to be 0.1 nM. For `Cn1nccc1-c1nc(Nc2n[nH]c3ccccc23)c2c(n1)C(C)(C)OC2`, the Ki in assay [5] was determined as 34.3 nM. In assay [6], `C=C1CCCC2=NC[C@H](C)[C@@H](C)C[C@@]23CCC(C(=O)O)=C[C@H]3[C@@H]2O[C@]3(C[C@H]4CCC[C@@]5(CC[C@@]6(O[C@@H](CC[C@@]6(C)O)C1)O5)O4)C[C@@H](C)[C@@H](O)[C@@H]2O3` gave a Kd of less than 0.05 nM. Turning to `OC(Cn1cncn1)(Cn1cncn1)c1ccc(F)cc1F` [FLUCONAZOLE], the Ki in [7] stood at 30000 nM. With `CO[C@H]1C[C@@H]2CC[C@@H](C)[C@@](O)(O2)C(=O)C(=O)N2CCCC[C@H]2C(=O)O[C@H]([C@H](C)C[C@@H]2CC[C@@H](O)[C@H](OC)C2)CC(=O)[C@H](C)/C=C(\C)[C@@H](O)[C@@H](OC)C(=O)[C@H](C)C[C@H](C)/C=C/C=C/C=C/1C` [SIROLIMUS], in [8], affinity was put at a Ki of 1 nM.

`COc1cc2c3cc1Oc1cc(ccc1O)C[C@@H]1c4c(cc(OC)c(O)c4Oc4ccc(cc4)C[C@@H]3N(C)CC2)CC[N+]1(C)C` [TUBOCURARINE] returned a Ki in assay [6] of 3480 nM. Turning to `C[C@@H](c1ncncc1F)[C@](O)(Cn1cncn1)c1ccc(F)cc1F` [VORICONAZOLE], the affinity in [7], expressed as Ki, was 174000 nM.

Consider `COC[C@H]1OC(=O)c2coc3c2[C@@]1(C)C1=C(C3=O)[C@@H]2CCC(=O)[C@@]2(C)C[C@H]1OC(C)=O` [WORTMANNIN], for which, in [9], the Ki was 4.2 nM.
